Results from patent publication US20120157471A1, “BENZIMIDAZOLE DERIVATIVES” (PFIZER INC., priority 2009, published 2012).

Assays:
[1] = biological target: T1, human Smo (amino acids 181-787) (Homo sapiens, UniProt Q99835); assay: Smo radioligand competition binding assay (displacement of 3H-PF-03451358 from HEK293 membranes); details: for inhibition at 0.05 µM: 0.05 μM test compound, displacement of 3H-PF-03451358, read-out: SMO % inh. @ 0.05 μM; for IC50: radioligand competition binding
T1 construct: expressed in transfected cells; membrane preparation
T1 sequence (Q99835 181-787): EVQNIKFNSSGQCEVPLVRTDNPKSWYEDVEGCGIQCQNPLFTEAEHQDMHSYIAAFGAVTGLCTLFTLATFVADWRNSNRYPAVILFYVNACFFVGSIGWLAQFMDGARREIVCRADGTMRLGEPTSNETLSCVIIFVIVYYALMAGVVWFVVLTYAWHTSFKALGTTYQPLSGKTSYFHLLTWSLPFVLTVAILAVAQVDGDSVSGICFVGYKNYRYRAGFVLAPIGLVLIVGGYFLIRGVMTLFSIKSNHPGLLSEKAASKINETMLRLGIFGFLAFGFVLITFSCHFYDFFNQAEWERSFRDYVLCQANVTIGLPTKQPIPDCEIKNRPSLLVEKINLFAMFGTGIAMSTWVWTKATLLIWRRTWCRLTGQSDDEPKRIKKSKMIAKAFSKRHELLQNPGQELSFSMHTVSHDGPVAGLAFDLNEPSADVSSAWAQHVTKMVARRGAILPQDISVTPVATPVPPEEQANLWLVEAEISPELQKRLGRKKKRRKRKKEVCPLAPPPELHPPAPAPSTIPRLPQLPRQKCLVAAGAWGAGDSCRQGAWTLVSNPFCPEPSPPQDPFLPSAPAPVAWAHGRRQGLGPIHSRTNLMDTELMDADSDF
Method in brief: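 Displacement of 3 nM tritiated PF-03451358 measured by filtration and scintillation counting after 2 h at room temperature, using 40 μg/well HEK293 membranes bearing cell-surface Smo 181-787, pH 7.5 buffer. Specific binding defined against 30 μM unlabelled ligand; IC50 via variable-slope sigmoidal fit.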

Gli-Luc/MEF cells (Smo) = assay: Gli-Luc/MEF assay (Shh-stimulated luciferase reporter under the Gli response element); assay type: cell-based, mouse; details: Mus musculus, MEF, 48 h
Method in brief: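 IC50 derived from luminescence (Bright-Glo) after 48 h at 37° C, 5% CO2, with compound at […] (3-fold dilutions) added together with mouse Shh at 2 μg/mL final. Cells: MEFs from Gli-Luc transgenic mice.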

SMILES | inhibition at 0.05 µM [1] [%] | IC50 [1] [nM] | IC50 (Gli-Luc/MEF cells (Smo)) [nM]
CCn1nnnc1C1CN(c2cc(-c3nc4ccccc4n3C)c(Cl)cn2)CCO1 (stereo not shown) [Example A-71, 2-{5-chloro-2-[2-(1-ethyl-1H-tetrazol-5-yl)morpholin-4-yl]pyridin-4-yl}-1-methyl-1H-benzimidazole] | 94 | 18 | 10
Cc1cnc(N2CCC(NS(C)(=O)=O)CC2)cc1-c1nc2ccccc2n1C [Example E-1, N-{1-[5-methyl-4-(1-methyl-1H-benzimidazol-2-yl)pyridin-2-yl]piperidin-4-yl}methanesulfonamide] | 98 | 19 | 19.8
Cn1c(-c2cc(N3CCOC(c4nc(C5CC5)no4)C3)ncc2Cl)nc2ccccc21 (stereo not shown) [Example A-76, 2-{5-chloro-2-[2-(3-cyclopropyl-1,2,4-oxadiazol-5-yl)morpholin-4-yl]pyridin-4-yl}-1-methyl-1H-benzimidazole] | 92 | 35 | 18
Cc1nnc(C2CCN(c3cc(-c4nc5ccccc5n4C)c(Cl)cn3)CC2)o1 [Example A-97, 2-{5-chloro-2-[4-(5-methyl-1,3,4-oxadiazol-2-yl)piperidin-1-yl]pyridin-4-yl}-1-methyl-1H-benzimidazole] | 85 | 32 | 25
COC(=O)N(C)C1CCN(c2cc(-c3nc4ccccc4n3C)c(Cl)cn2)C1 (stereo not shown) [Example A-178, methyl {1-[5-chloro-4-(1-methyl-1H-benzimidazol-2-yl)pyridin-2-yl]pyrrolidin-3-yl}methylcarbamate] | 92 | 43 | 17
CN(C)C(=O)COC1CCN(c2cc(-c3nc4ccccc4n3C)c(Cl)cn2)C1 (stereo in doubt) [Example A-126, 2-({(3R)-1-[5-chloro-4-(1-methyl-1H-benzimidazol-2-yl)pyridin-2-yl]pyrrolidin-3-yl}oxy)-N,N-dimethylacetamide] | 57 |  | 109
Cn1c(-c2cc(N3CCC(O)(c4ccn[nH]4)C3)ncc2Cl)nc2ccccc21 (stereo not shown) [Example A-105, 1-[5-chloro-4-(1-methyl-1H-benzimidazol-2-yl)pyridin-2-yl]-3-(1H-pyrazol-5-yl)pyrrolidin-3-ol] | 79 | 65 | 24
Cn1ccnc1C(O)C1CCN(c2cc(-c3nc4ccccc4n3C)c(Cl)cn2)CC1 (stereo not shown) [Example A-73, {1-[5-chloro-4-(1-methyl-1H-benzimidazol-2-yl)pyridin-2-yl]piperidin-4-yl}(1-methyl-1H-imidazol-2-yl)methanol] | 93 | 45 | 25
CC(=O)N1CCN(c2cc(-c3nc4ccccc4n3C)c(Cl)cn2)[C@@H](C)C1 [Example A-199, 2-{2-[(2S)-4-acetyl-2-methylpiperazin-1-yl]-5-chloropyridin-4-yl}-1-methyl-1H-benzimidazole] | 100 | 9 | 7.2
CN(C1CCN(c2cc(-c3nc4ccccc4n3C)c(Cl)cn2)C1)S(C)(=O)=O (stereo not shown) [Example A-181, N-{1-[5-chloro-4-(1-methyl-1H-benzimidazol-2-yl)pyridin-2-yl]pyrrolidin-3-yl}-N-methylmethanesulfonamide] | 98 | 11 | 9
Cn1c(-c2nc(N3CCN(C=O)CC3)ccc2Cl)nc2ccccc21 [Example B-5, 4-[5-chloro-6-(1-methyl-1H-benzimidazol-2-yl)pyridin-2-yl]piperazine-1-carbaldehyde] | 92 | 27 | 27
Cn1c(-c2cc(N3CCC(O)CC3)ncc2Cl)nc2ccccc21 [Example A-25, 1-[5-chloro-4-(1-methyl-1H-benzimidazol-2-yl)pyridin-2-yl]piperidin-4-ol] | 91 | 8 | 7
CC(=O)N1CCCN(c2cc(-c3nc4ccccc4n3C)ccn2)CC1 [Example A-154, 2-[2-(4-acetyl-1,4-diazepan-1-yl)pyridin-4-yl]-1-methyl-1H-benzimidazole] | 90 | 33 | 20
Cn1c(-c2cc(N3CCC(C(=O)NC4CCOC4)CC3)ncc2Cl)nc2ccccc21 (stereo not shown) [Example A-208, 1-[5-chloro-4-(1-methyl-1H-benzimidazol-2-yl)pyridin-2-yl]-N-(tetrahydrofuran-3-yl)piperidine-4-carboxamide] | 102 | 23 | 18.1
Cn1c(-c2cc(N3C[C@@H](O)[C@H](O)C3)ncc2Cl)nc2ccccc21 [Example A-127, (3R,4R)-1-[5-chloro-4-(1-methyl-1H-benzimidazol-2-yl)pyridin-2-yl]pyrrolidine-3,4-diol] | 57 |  | 128
Cn1c(-c2cccc(N3CCN(S(C)(=O)=O)CC3)n2)nc2ccccc21 [Example B-7, 1-methyl-2-{6-[4-(methylsulfonyl)piperazin-1-yl]pyridin-2-yl}-1H-benzimidazole] | 78 | 97 | 189
Cn1c(-c2cc(N3CC(NS(=O)(=O)CCO)C3)ncc2Cl)nc2ccccc21 [Example A-200, N-{1-[5-chloro-4-(1-methyl-1H-benzimidazol-2-yl)pyridin-2-yl]azetidin-3-yl}-2-hydroxyethanesulfonamide] | 98 | 15 | 7.6
Cn1c(-c2ccnc(N3CCNCC3)c2)nc2ccccc21 [Example A-31] | 54 | 645 | 128
Cn1c(-c2cc(N3CCn4c(nnc4C(F)F)C3)ncc2Cl)nc2ccccc21 [Example A-101, 7-[5-chloro-4-(1-methyl-1H-benzimidazol-2-yl)pyridin-2-yl]-3-(difluoromethyl)-5,6,7,8-tetrahydro[1,2,4]triazolo[4,3-a]pyrazine] | 81 | 103 | 95
Cc1ccc(N2CCC(S(C)(=O)=O)CC2)nc1-c1nc2ccccc2n1C [Example E-6, 1-methyl-2-{3-methyl-6-[4-(methylsulfonyl)piperidin-1-yl]pyridin-2-yl}-1H-benzimidazole] | 89 | 51 | 61.6
Cn1c(-c2nc(N3CCN(S(C)(=O)=O)CC3)ncc2Cl)nc2ccccc21 [Example C-3, 2-{5-Chloro-2-[4-(methylsulfonyl)piperazin-1-yl]pyrimidin-4-yl}-1-methyl-1H-benzimidazole] | 96 | 9 | 19
CNC(=O)N1CCN(c2cc(-c3nc4ccccc4n3C)c(F)cn2)CC1 [Example D-7, 4-[5-fluoro-4-(1-methyl-1H-benzimidazol-2-yl)pyridin-2-yl]-N-methylpiperazine-1-carboxamide] | 88 | 47 | 54
CCS(=O)(=O)NC1CCN(c2cc(-c3nc4ccccc4n3C)c(F)cn2)CC1 [Example D-9, N-{1-[5-fluoro-4-(1-methyl-1H-benzimidazol-2-yl)pyridin-2-yl]piperidin-4-yl}ethanesulfonamide] | 99 | 5 | 3.9
Cn1c(-c2cc(N3CC[C@H](O)C3)ncc2Cl)nc2ccccc21 [Example A-28, (3S)-1-[5-chloro-4-(1-methyl-1H-benzimidazol-2-yl)pyridin-2-yl]pyrrolidin-3-ol] | 82 | 79 | 52
Cn1c(-c2cc(N3CCN(C4CCS(=O)(=O)C4)CC3)ncc2Cl)nc2ccccc21 (stereo not shown) [Example A-86, 2-{5-chloro-2-[4-(1,1-dioxidotetrahydro-3-thienyl)piperazin-1-yl]pyridin-4-yl}-1-methyl-1H-benzimidazole] | 90 | 61 | 43
CC(=O)NC1CCN(c2ccc(Cl)c(-c3nc4ccccc4n3C)n2)CC1 [Example B-11, N-{1-[5-chloro-6-(1-methyl-1H-benzimidazol-2-yl)pyridin-2-yl]piperidin-4-yl}acetamide] | 98 | 16 | 7
CC(C)NC(=O)NC1CN(c2cc(-c3nc4ccccc4n3C)c(Cl)cn2)C1 [Example A-188, 1-{1-[5-chloro-4-(1-methyl-1H-benzimidazol-2-yl)pyridin-2-yl]azetidin-3-yl}-3-isopropylurea] | 97 | 15 | 10
CN(CC(N)=O)c1cc(-c2nc3ccccc3n2C)c(Cl)cn1 [Example A-186, N~2~-[5-chloro-4-(1-methyl-1H-benzimidazol-2-yl)pyridin-2-yl]-N~2~-methylglycinamide] | 78 | 97 | 65
Cn1c(-c2cc(N3CCN(S(=O)(=O)CCO)CC3)ncc2F)nc2ccccc21 [Example D-15, 2-({4-[5-fluoro-4-(1-methyl-1H-benzimidazol-2-yl)pyridin-2-yl]piperazin-1-yl}sulfonyl)ethanol] | 101 | 19 | 11
Cn1c(-c2cc(N3CC(CS(C)(=O)=O)C3)ncc2Cl)nc2ccccc21 [Example A-211, 2-(5-chloro-2-{3-[(methylsulfonyl)methyl]azetidin-1-yl}pyridin-4-yl)-1-methyl-1H-benzimidazole] | 104 | 36 | 28.4
